Test results: patent US20080161232A1, “C5a Receptor Antagonist” (JERINI AG, priority 2005, published 2008)
pIC50: −log10 of the molar value. Positions of bridges follow the written chain, without caps; N, C: chain ends. Non-standard residues stand in square brackets, D forms with d. Residues, ends and D or L forms follow the SMILES beside them. *: point of attachment. Phe(3-Cl) = N[C@@H](Cc1cccc(Cl)c1)C(=O)O; NMe2Phe = CN(C)[C@@H](Cc1ccccc1)C(=O)*; Phe(4-F) = N[C@@H](Cc1ccc(F)cc1)C(=O)O; Phe(2-F) = N[C@@H](Cc1ccccc1F)C(=O)O; Bta = N[C@@H](Cc1csc2ccccc12)C(=O)O; Hyp = O=C(O)[C@@H]1C[C@@H](O)CN1; d(hLeu) = CC(C)CC[C@@H](N)C(=O)O; hArg = N=C(N)NCCCC[C@H](N)C(=O)O; 4Pal = N[C@@H](Cc1ccncc1)C(=O)O; Cha = N[C@@H](CC1CCCCC1)C(=O)O; dCha = N[C@H](CC1CCCCC1)C(=O)O; Methoxyoxalyl = COC(=O)C(=O)*; Pip = O=C(O)[C@@H]1CCCCN1; Orn = NCCC[C@H](N)C(=O)O; Aze = O=C(O)[C@@H]1CCN1; Fluoroacetyl = O=C(CF)*

molecular target: T1, human C5aR(CD88) (Homo sapiens, UniProt P21730); experiment: Determination of the IC50 value in an enzyme release assay (functional assay, antagonistic activity); format: cell-based; details: activity (group), antagonistic activity; IC50 group in enzyme release assay, RBL cells expressing human C5aR(CD88)
T1 construct: expressed in transfected cells; host or cells: rat basophilic leukemia cells (RBL)
T1 sequence (P21730 1-350): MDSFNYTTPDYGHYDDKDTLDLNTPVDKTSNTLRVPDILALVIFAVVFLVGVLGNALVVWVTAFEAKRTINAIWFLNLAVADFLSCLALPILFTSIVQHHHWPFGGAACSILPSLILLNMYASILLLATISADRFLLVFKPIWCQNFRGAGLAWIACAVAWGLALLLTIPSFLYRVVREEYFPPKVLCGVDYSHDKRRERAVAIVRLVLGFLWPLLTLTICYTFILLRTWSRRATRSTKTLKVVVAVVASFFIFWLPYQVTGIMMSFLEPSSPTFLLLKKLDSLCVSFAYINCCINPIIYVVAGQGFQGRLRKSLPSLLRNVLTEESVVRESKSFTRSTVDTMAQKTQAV

| SMILES | pIC50 |
| --- | --- |
| NCCC[C@H](NC(=O)[C@H](Cc1ccccc1)NC(=O)CF)C(=O)N1CCC[C@H]1C(=O)N[C@H](CC1CCCCC1)C(=O)N[C@@H](Cc1csc2ccccc12)C(=O)N[C@@H](Cc1ccccc1)C(N)=O [Compound 142, FH2C—CO-Phe-Orn-Pro-cha-Bta-Phe-NH2] (Fluoroacetyl-F[Orn]P[dCha][Bta]F-NH2) | 7.30 to 7.70 |

same assay, conditions: antagonistic activity; IC50 group in enzyme release assay, RBL cells expressing human C5aR(CD88); read-out: activity (group)

| SMILES | pIC50 |
| --- | --- |
| CC(=O)N[C@@H](CCCN)C(=O)N[C@@H](Cc1ccccc1)C(=O)N[C@@H](CCCN)C(=O)N1CC[C@H]1C(=O)N[C@H](CC1CCCCC1)C(=O)N[C@@H](Cc1csc2ccccc12)C(=O)N[C@@H](Cc1ccccc1)C(N)=O [Compound 168, Ac-Orn-Phe-Orn-Aze-cha-Bta-Phe-NH2] (Ac-[Orn]F[Orn][Aze][dCha][Bta]F-NH2) | 6.70 to 7.30 |
| CC(=O)N[C@@H](Cc1ccccc1)C(=O)N[C@H]1CCCNC(=O)[C@H](Cc2ccccc2)NC(=O)[C@H](Cc2ccc(F)cc2)NC(=O)[C@@H](CCC(C)C)NC(=O)[C@@H]2C[C@@H](O)CN2C1=O [Compound 180, Ac-Phe-[Orn-Hyp-hle-Pff-Phe]] (Ac-F[Orn][Hyp][d(hLeu)][Phe(4-F)]F; lactam 2-C) | 6.70 to 7.30 |
| CN(C)[C@@H](Cc1ccccc1)C(=O)N[C@@H](CCCN)C(=O)N1CCC[C@H]1C(=O)N[C@H](CC1CCCCC1)C(=O)N[C@@H](Cc1c[nH]c2ccccc12)C(=O)N[C@@H](Cc1ccccc1)C(N)=O [Compound 69, Me2-Phe-Orn-Pro-cha-Trp-Phe-NH2] (NMe2Phe-[Orn]P[dCha]WF-NH2) | 6.70 to 7.30 |
| N[C@@H](Cc1ccccc1)C(=O)N[C@H]1CCCNC(=O)[C@H](Cc2ccccc2)NC(=O)[C@H](Cc2c[nH]c3ccccc23)NC(=O)[C@@H](CC2CCCCC2)NC(=O)[C@H](CO)NC1=O [Compound 383, H-Phe-[Orn-Ser-cha-Trp-Phe]] (H-F[Orn]S[dCha]WF; lactam 2-C) | 7.30 to 7.70 |
| CC(=O)N[C@@H](Cc1ccccc1)C(=O)N[C@@H](CCCN)C(=O)N1CCCC[C@H]1C(=O)N[C@H](CC1CCCCC1)C(=O)N[C@@H](Cc1c[nH]c2ccccc12)C(=O)N[C@@H](Cc1ccccc1)C(N)=O [Compound 92, Ac-Phe-Orn-Pip-cha-Trp-Phe-NH2] (Ac-F[Orn][Pip][dCha]WF-NH2) | 6.70 to 7.30 |
| CC(=O)N[C@@H](Cc1ccccc1)C(=O)N[C@@H](CCCN)C(=O)N1CCC[C@H]1C(=O)N[C@H](CCC(C)C)C(=O)N[C@@H](Cc1cccc(Cl)c1)C(=O)N[C@@H](CC1CCCCC1)C(N)=O [Compound 289, Ac-Phe-Orn-Pro-hle-Mcf-Cha-NH2] (Ac-F[Orn]P[d(hLeu)][Phe(3-Cl)][Cha]-NH2) | 7.30 to 7.70 |
| CC(=O)N[C@@H](Cc1ccccc1)C(=O)N[C@@H](CCCN)C(=O)N1CCC[C@H]1C(=O)N[C@H](CCC(C)C)C(=O)N[C@@H](Cc1ccc(F)cc1)C(=O)N[C@@H](Cc1ccc(F)cc1)C(N)=O [Compound 301, Ac-Phe-Orn-Pro-hle-Pff-Pff-NH2] (Ac-F[Orn]P[d(hLeu)][Phe(4-F)][Phe(4-F)]-NH2) | 6.70 to 7.30 |
| CC(=O)N[C@@H](Cc1ccccc1F)C(=O)N[C@@H](CCCN)C(=O)N1CCC[C@H]1C(=O)N[C@H](CCC(C)C)C(=O)N[C@@H](Cc1csc2ccccc12)C(=O)N[C@@H](Cc1ccccc1)C(N)=O [Compound 167, Ac-Off-Orn-Pro-hle-Bta-Phe-NH2] (Ac-[Phe(2-F)][Orn]P[d(hLeu)][Bta]F-NH2) | 7.30 to 7.70 |
| CC(=O)N[C@@H](Cc1ccccc1)C(=O)N[C@@H](CCCCNC(=N)N)C(=O)N1CCC[C@H]1C(=O)N[C@H](CC1CCCCC1)C(=O)N[C@@H](Cc1csc2ccccc12)C(=O)N[C@@H](Cc1ccccc1)C(N)=O [Compound 121, Ac-Phe-Har-Pro-cha-Bta-Phe-NH2] (Ac-F[hArg]P[dCha][Bta]F-NH2) | 7.30 to 7.70 |
| CC(=O)N[C@@H](Cc1ccccc1)C(=O)N[C@H]1CCCNC(=O)[C@H](Cc2ccncc2)NC(=O)[C@H](Cc2c[nH]c3ccccc23)NC(=O)[C@@H](CC2CCCCC2)NC(=O)[C@@H]2CCCN2C1=O [compound 23] (Ac-F[Orn]P[dCha]W[4Pal]; lactam 2-C) | 6.70 to 7.30 |
| COC(=O)C(=O)N[C@@H](Cc1ccccc1)C(=O)N[C@@H](CCCN)C(=O)N1CCC[C@H]1C(=O)N[C@H](CC1CCCCC1)C(=O)N[C@@H](Cc1csc2ccccc12)C(=O)N[C@@H](Cc1ccccc1)C(N)=O [Compound 340, Fid-Phe-Orn-Pro-cha-Bta-Phe-NH2] (Methoxyoxalyl-F[Orn]P[dCha][Bta]F-NH2) | 6.70 to 7.30 |
| CC(C)CC[C@H]1NC(=O)[C@@H]2C[C@@H](O)CN2C(=O)[C@@H](NC(=O)[C@@H](N)Cc2ccccc2)CCCNC(=O)[C@H](Cc2ccccc2)NC(=O)[C@H](Cc2c[nH]c3ccccc23)NC1=O [Compound 371, H-Phe-[Orn-Hyp-hle-Trp-Phe]] (H-F[Orn][Hyp][d(hLeu)]WF; lactam 2-C) | 7.30 to 7.70 |
